Active and inactive are the calls of the source. The calls are words filed in the database; no cut-off is given here.
Tests used:
[1] = target: ALK tyrosine kinase receptor (Homo sapiens) (UniProt Q9UM73); conditions: 5 nM
Description: Inhibition of N-terminal GST-tagged human ALK cytoplasmic domain (1058 to 1620 amino acids) expressed in baculovirus expression system at 5 nM relative to control

[2] = Antitumor activity against mouse NIH-3T3/EML4-ALK cells implanted in Balb/c mouse assessed as inhibition of tumor growth at 10 mg/kg, po dosed once daily for 5 days and measured every other day relative to untreated control; assay type: functional; conditions: NIH3T3, po, 120 h, read-out: TGI
EML4-ALK [3] = target: EML4-ALK (Homo sapiens, UniProt Q9UM73); experiment: Inhibition of recombinant FLAG-tagged EML4-ALK fusion protein (unknown origin) expressed in mouse BA/F3 cells using peptide substrate and ATP incubated for 1 hr by HTRF assay
Chain of EML4-ALK (Homo sapiens, UniProt Q9UM73) (Q9UM73 whole entry, the tested form may be a part): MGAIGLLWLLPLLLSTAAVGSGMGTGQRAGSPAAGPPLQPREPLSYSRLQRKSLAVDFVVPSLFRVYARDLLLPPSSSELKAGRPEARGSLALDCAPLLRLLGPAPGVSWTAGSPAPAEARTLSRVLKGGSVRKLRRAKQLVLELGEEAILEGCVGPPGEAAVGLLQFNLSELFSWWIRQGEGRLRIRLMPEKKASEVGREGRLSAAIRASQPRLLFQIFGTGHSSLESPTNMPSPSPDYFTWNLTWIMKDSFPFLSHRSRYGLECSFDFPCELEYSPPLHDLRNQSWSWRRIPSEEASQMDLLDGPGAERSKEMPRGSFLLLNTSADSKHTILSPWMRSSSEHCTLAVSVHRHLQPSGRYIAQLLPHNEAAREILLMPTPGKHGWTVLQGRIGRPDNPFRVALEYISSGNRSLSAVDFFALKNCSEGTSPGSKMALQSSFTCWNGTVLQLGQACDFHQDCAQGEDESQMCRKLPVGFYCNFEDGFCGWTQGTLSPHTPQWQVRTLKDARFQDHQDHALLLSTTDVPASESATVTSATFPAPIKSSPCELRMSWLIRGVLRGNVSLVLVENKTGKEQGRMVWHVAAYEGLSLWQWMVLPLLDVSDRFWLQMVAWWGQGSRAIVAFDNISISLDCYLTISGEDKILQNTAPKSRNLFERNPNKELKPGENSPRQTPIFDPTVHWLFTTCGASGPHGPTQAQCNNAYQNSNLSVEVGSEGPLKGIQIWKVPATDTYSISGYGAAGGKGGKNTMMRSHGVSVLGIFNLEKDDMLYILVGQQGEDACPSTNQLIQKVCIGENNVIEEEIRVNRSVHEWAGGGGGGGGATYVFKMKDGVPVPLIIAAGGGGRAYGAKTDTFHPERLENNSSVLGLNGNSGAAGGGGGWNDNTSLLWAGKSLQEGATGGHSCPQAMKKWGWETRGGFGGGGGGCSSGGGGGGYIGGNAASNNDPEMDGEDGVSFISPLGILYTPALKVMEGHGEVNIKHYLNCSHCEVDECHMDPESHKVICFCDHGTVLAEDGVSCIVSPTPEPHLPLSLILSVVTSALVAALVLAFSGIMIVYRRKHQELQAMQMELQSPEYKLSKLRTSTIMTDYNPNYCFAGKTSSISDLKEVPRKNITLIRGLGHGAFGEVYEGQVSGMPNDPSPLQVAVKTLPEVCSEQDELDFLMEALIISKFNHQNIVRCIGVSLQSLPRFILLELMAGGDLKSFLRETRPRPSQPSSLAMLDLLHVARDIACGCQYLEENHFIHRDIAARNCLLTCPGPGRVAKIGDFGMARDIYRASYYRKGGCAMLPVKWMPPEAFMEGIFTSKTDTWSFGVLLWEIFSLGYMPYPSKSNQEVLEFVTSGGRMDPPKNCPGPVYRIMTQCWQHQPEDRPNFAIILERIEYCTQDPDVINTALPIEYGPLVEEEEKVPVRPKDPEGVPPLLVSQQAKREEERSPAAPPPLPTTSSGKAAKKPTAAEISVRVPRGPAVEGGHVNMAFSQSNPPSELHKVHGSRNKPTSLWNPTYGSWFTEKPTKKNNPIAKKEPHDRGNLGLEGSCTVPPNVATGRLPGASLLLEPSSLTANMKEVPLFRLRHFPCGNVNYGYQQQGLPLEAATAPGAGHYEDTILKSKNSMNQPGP
Chain of EML4-ALK (Homo sapiens, UniProt Q9UM73) (Q9HC35 whole entry, further chain, the tested form may be a part): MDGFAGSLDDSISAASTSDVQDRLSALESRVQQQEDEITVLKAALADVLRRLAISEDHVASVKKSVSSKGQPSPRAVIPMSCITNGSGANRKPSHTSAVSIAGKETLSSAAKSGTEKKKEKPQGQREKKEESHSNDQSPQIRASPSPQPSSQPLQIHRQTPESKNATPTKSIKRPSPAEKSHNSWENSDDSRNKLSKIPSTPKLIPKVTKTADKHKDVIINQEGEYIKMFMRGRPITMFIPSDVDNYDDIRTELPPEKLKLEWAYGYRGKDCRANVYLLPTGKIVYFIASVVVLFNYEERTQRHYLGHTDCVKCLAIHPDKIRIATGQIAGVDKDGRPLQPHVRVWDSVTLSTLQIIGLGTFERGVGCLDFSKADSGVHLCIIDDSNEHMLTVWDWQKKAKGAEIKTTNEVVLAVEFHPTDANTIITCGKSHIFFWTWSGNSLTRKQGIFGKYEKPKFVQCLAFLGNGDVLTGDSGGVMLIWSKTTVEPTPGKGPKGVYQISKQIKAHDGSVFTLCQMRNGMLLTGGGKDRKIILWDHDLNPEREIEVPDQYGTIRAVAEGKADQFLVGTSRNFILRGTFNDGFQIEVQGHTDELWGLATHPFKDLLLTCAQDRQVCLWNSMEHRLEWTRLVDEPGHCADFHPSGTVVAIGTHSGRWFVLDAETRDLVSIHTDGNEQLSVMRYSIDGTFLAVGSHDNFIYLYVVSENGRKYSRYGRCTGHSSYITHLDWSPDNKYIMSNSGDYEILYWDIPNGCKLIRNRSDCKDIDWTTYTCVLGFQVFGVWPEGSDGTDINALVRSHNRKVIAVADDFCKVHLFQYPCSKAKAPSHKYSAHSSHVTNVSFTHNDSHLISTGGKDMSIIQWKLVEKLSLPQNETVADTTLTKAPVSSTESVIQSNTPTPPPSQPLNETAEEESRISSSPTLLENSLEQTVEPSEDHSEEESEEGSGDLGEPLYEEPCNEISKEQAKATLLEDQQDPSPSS

NCI-H2228 = experiment: Antitumor activity against EML4-ALK fusion protein harboring human NCI-H2228 cells xenografted in NOD/SCID mouse assessed as inhibition of tumor growth at 1 mg/kg, po dosed once daily for 14 days starting 3 weeks of tumor cell inoculation and measured every other day relative to untreated control; assay type: functional
EML4-ALK [4] = target: EML4-ALK (Homo sapiens, UniProt Q9UM73+Q9HC35); experiment: Inhibition of recombinant FLAG-tagged EML4-ALK fusion protein (unknown origin) expressed in mouse BA/F3 cells assessed as inhibition of cell growth incubated for 2 days by alamar blue dye based assay
Chain of EML4-ALK (Homo sapiens, UniProt Q9UM73+Q9HC35) (Q9UM73 whole entry, the tested form may be a part): as the sequence (Q9UM73 whole entry, the tested form may be a part) above
Chain of EML4-ALK (Homo sapiens, UniProt Q9UM73+Q9HC35) (Q9HC35 whole entry, the tested form may be a part): as the sequence (Q9HC35 whole entry, further chain, the tested form may be a part) above

Chain of ALK tyrosine kinase receptor (Homo sapiens) (Q9UM73 19-1620 limits assumed): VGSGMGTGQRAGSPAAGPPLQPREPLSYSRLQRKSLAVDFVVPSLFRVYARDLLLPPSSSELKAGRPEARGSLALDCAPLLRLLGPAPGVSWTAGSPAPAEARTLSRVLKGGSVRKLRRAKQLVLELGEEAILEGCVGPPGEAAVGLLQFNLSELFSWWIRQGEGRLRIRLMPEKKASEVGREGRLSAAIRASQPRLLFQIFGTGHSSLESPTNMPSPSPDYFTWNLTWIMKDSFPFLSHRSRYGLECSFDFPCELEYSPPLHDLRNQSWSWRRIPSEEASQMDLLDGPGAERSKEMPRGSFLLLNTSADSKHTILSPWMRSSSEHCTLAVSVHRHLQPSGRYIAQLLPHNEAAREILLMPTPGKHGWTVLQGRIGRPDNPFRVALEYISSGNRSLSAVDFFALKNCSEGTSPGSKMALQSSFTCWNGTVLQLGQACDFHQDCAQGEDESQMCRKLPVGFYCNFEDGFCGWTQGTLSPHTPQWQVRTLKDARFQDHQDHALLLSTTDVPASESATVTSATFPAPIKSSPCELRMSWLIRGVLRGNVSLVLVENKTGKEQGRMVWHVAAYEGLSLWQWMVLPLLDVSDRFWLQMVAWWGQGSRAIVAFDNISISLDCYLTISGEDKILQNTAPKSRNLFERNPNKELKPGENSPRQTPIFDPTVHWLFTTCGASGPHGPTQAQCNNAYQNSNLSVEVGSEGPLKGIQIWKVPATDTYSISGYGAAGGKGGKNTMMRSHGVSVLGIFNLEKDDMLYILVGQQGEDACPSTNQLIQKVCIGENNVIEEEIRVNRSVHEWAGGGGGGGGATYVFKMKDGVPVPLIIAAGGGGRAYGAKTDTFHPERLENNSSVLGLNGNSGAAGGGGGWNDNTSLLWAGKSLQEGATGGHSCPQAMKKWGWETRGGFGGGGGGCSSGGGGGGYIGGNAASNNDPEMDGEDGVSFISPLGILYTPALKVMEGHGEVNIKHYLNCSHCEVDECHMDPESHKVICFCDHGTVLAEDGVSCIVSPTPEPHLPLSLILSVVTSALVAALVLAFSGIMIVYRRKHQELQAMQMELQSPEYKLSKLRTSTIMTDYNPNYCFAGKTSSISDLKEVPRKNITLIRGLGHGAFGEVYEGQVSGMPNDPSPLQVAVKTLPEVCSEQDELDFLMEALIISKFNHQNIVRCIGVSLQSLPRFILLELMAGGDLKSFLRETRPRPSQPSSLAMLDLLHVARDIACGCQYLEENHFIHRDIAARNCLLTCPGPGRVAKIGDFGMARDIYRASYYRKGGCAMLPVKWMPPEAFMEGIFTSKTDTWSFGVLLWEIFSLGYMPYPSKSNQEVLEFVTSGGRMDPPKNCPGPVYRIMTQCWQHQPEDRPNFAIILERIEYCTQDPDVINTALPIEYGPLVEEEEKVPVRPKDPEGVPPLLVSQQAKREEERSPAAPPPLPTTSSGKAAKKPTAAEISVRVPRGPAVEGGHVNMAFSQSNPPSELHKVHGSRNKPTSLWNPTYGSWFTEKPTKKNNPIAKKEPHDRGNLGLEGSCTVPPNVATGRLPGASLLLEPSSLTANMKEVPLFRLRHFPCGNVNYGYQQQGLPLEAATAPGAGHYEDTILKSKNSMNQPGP

Row | inhibition [1] [%] | Compound | also measured
1 | > 50 | CCc1nc(C(N)=O)c(Nc2ccc(N3CCC(N4CCN(C)CC4)CC3)c(C)c2)nc1N[C@H]1CC[C@@](C)(O)CC1 | –
2 | > 50 | CCc1nc(C(N)=O)c(Nc2ccc(N3CCC(N4CCN(C)CC4)CC3)c(C(F)(F)F)c2)nc1N[C@H]1CC[C@H](O)CC1 | inhibition in vivo at 10 mg/kg [2]: 81%
3 | > 50 | CC(C)c1nc(C(N)=O)c(Nc2ccc(N3CCN(C)CC3)cc2)nc1NC1CCOCC1 | –
4 | – | CCc1nc(C(N)=O)c(Nc2ccc(N3CCC(N4CCN(C)CC4)CC3)c(C)c2)nc1N[C@H]1CC[C@](O)(C(C)C)CC1 | IC50 (EML4-ALK [3]): 2.6 nM
5 | – | CCc1nc(C(N)=O)c(Nc2ccc(N3CCC(N4CCN(C)CC4)CC3)c(C)c2)nc1N[C@H]1CC[C@@](O)(CC)CC1 | IC50 (EML4-ALK [3]): 2.8 nM
6 | > 50 | CCc1nc(C(N)=O)c(Nc2ccc(N3CCC(N4CCN(C)CC4)CC3)c(C)c2)nc1NC1CCOCC1 | –
7 | > 50 | COc1cc(Nc2nc(NC3CCOCC3)c(C(C)C)nc2C(N)=O)ccc1N1CCN(C)CC1 | inhibition in vivo at 10 mg/kg [2]: 63%
8 | > 50 | CC(C)c1nc(C(N)=O)c(Nc2ccc(N3CCC(N4CCN(C)CC4)CC3)cc2)nc1NC1CCOCC1 | inhibition in vivo at 1 mg/kg (NCI-H2228; read-out: TGI): 69%
9 | > 50 | CCc1nc(C(N)=O)c(Nc2ccc(N3CCN(C)CC3)c(F)c2)nc1NC1CCOCC1 | –
10 | > 50 | CCc1nc(C(N)=O)c(Nc2ccc(N3CCN(C(C)C)CC3)c(C)c2)nc1N[C@H]1CC[C@H](O)CC1 | inhibition in vivo at 10 mg/kg [2]: 81%
11 | > 50 | CCc1nc(C(N)=O)c(Nc2ccc(N3CCC(N4CCN(C)CC4)CC3)cc2)nc1NC1CCOCC1 | inhibition in vivo at 10 mg/kg [2]: 79%
12 | > 50 | CCc1nc(C(N)=O)c(Nc2ccc(N3CCC(N4CCN(C)CC4)CC3)cc2)nc1N[C@H]1CC[C@H](O)CC1 | –
13 | > 50 | CCc1nc(C(N)=O)c(Nc2ccc(N3CCC(N4CCN(C)CC4)CC3)c(C)c2)nc1N[C@H]1CC[C@H](O)CC1 | inhibition in vivo at 10 mg/kg [2]: 92%
14 | – | CCc1nc(C(N)=O)c(Nc2ccc(N3CCC(N4CCN(C)CC4)CC3)c(C)c2)nc1N[C@H]1CC[C@](O)(CC)CC1 | IC50 (EML4-ALK [3]): 3.1 nM
15 | > 50 | CCc1nc(C(N)=O)c(Nc2ccc(N3CCN(C4CCN(C)CC4)CC3)c(C)c2)nc1NC1CCOCC1 | –
16 | > 50 | CCc1nc(C(N)=O)c(Nc2ccc(N3CCC(N4CCN(C)CC4)CC3)c(OC)c2)nc1NC1CCOCC1 | –
17 | > 50 | CCc1nc(C(N)=O)c(Nc2ccc(N3CCC(N4CCN(C)CC4)CC3)c(C)c2)nc1N[C@H]1CC[C@](C)(O)CC1 | –
18 | > 50 | CCc1nc(C(N)=O)c(Nc2ccc(N3CCN(C)CC3)cc2)nc1N[C@H]1CC[C@H](O)CC1 | –
19 | > 50 | CC(C)c1nc(C(N)=O)c(Nc2ccc(N3CCC(N4CCN(C)CC4)CC3)c(C(F)(F)F)c2)nc1N[C@H]1CC[C@H](O)CC1 | –
20 | – | CCc1nc(C(N)=O)c(Nc2cccc(C)c2)nc1NCCN(C)C | TGI (NCI-H2228): inactive
21 | – | CCc1nc(C(N)=O)c(Nc2ccc(N3CCC(N4CCN(C)CC4)CC3)c(C)c2)nc1N[C@H]1CC[C@@](O)(C(C)C)CC1 | IC50 (EML4-ALK [3]): 4.1 nM
22 | – | CCc1nc(C(N)=O)c(Nc2ccc3cnn(C)c3c2)nc1N[C@H]1CC[C@H](O)CC1 | IC50 (EML4-ALK [4]): 76 nM
23 | > 50 | CC(C)c1nc(C(N)=O)c(Nc2ccc(N3CCN(C)CC3)cc2)nc1N[C@H]1CC[C@H](O)CC1 | –
24 | > 50 | Cc1cc(Nc2nc(N[C@H]3CC[C@H](O)CC3)c(Cl)nc2C(N)=O)ccc1N1CCC(N2CCN(C)CC2)CC1 | –
25 | – | NC(=O)c1cnc(N[C@@H]2CCCC[C@@H]2N)nc1Nc1ccc(-c2ccc(N3CCOCC3)cc2)cc1 (racemic) | TGI (NCI-H2228): inactive
